Source: publication PMC9599461, “Stereoselectivity in the Membrane Transport of Phenylethylamine Derivatives by Human Monoamine Transporters and Organic Cation Transporters 1, 2, and 3” (Biomolecules, 2022)

Legend:
OCT3 = biological target: T1, OCT3 (Homo sapiens, UniProt O75751); test: Stereoselective uptake into OCT3-overexpressing HEK293 cells; conditions: for Clint ± SEM / Stereoselectivity Vmax / Stereoselectivity Km / Stereoselectivity ClInt: OCT3; for Clint ± SEM: quotient of vmax over Km; for Stereoselectivity Vmax / Stereoselectivity Km / Stereoselectivity ClInt: ratio between enantiomers; for Stereoselectivity Vmax: given as for (R) or for 1; for Stereoselectivity Km: given as for (R) or for 1 (first-eluting); for Vmax ± SEM / Km: HEK293 cells overexpressing human OCT3, racemic substrate, two minutes; for Vmax ± SEM: net uptake; for Km: read-out: Km ± SEM, net uptake minus empty vector control
T1 sequence (O75751 1-556): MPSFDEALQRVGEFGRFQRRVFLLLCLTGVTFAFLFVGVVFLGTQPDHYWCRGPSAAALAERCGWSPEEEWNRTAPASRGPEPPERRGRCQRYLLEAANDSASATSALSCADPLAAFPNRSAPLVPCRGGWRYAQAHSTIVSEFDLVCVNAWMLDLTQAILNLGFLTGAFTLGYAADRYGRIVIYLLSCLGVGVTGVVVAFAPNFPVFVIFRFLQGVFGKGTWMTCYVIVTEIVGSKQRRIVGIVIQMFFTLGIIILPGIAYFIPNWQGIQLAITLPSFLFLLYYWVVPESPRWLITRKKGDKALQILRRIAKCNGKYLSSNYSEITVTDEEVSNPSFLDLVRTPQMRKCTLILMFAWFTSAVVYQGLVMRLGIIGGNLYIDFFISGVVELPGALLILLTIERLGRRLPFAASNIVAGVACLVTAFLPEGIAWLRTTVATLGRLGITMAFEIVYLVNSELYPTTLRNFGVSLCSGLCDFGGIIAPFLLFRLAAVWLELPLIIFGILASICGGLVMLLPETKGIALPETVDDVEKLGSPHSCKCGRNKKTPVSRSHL

OCT2 A270S variant = test: Stereoselective uptake into OCT2 A270S variant-overexpressing HEK293 cells; conditions: OCT2 wild-type versus A270S, 100 μM racemic substance, two minutes, given as for WT
Description: (§1) All transport experiments were carried out in HEK293 cells stably overexpressing human MATs or OCTs. […] All cells were regularly cultivated in DMEM supplemented with 10% (v/v) FCS, penicillin (100 U/mL) and streptomycin (100 μg/mL)and kept in culture for no longer than 30 passages.
(§2) For the uptake experiments, 300,000 cells were plated in poly-D-lysine precoated 24-well plates 48 h ahead of the transport experiment. On the day of experiment, cells were initially washed once with 37 °C pre-warmed HBSS+ (Hanks buffered salt solution supplemented with 10 mM HEPES) and subsequently incubated with the substrates dissolved in pre-warmed HBSS+ for exactly two minutes. Incubation was stopped by adding ice-cold HBSS+ followed by two washing steps. After this, cells were lysed with 80% acetonitrile containing 10 ng/mL milnacipran as internal standard for high-performance liquid chromatography coupled to tandem mass spectrometry (HPLC-MS/MS) analysis. For every experiment, two additional wells per cell line were lysed using RIPA buffer for protein quantification. Total protein was quantified using the bicinchoninic acid assay [42]. This was later used for normalization of the uptake data.
(§3) Intracellularly accumulated test substances were quantified by HPLC-MS/MS analysis using a Shimadzu Nexera HPLC system with a SIL-30AC autosampler, a CTO-20AC column oven, a LC-30AD pump, and a CBM-20A controller (Shimadzu, Kyoto, Japan). Stereoselective chromatography was carried out on a [sequence] CBH HPLC column (100 × 3 mm inner dimension with 5 μM particle size; Sigma-Aldrich, Darmstadt, Germany) with a corresponding 10 × 3 mm guard column. Reversed phased chromatography was carried out using an ammonium acetate (NH4Ac) buffered aqueous mobile phase with isopropyl alcohol (IPA) as organic solvent. […] The order of elution of the enantiomers was obtained from available reference literature [43] or by applying enantiopure reference compounds to the chiral HPLC. […] However, in every other case where the order of elution was available, the (R)-enantiomer eluted first. Given the structural similarity of the investigated substances and the fact that separation was performed on the same column with almost identical mobile phases, we assume that this order of elution for our compound set is always the (R)- before the (S)-enantiomer.
(§4) Detection was performed with an API 4000 tandem mass spectrometer (AB SCIEX, Darmstadt, Germany) operating in multiple-reaction-monitoring mode. Quantification was performed using the Analyst 1.6.2 software (AB SCIEX, Darmstadt, Germany) and quantified by comparison to standard curves with known concentrations.
(§5) All uptake data were normalized to protein content to account for variation in the number of seeded sells. Transporter-mediated net uptake was calculated by subtracting uptake into empty vector-transfected control cells from uptake into transporter-transfected cells. Kinetic parameters were then determined after non-linear regression following the Michaelis–Menten equation (v = vmax × [S]/(Km + [S])) using GraphPad Prism (Version 5.01 for Windows, GraphPad Software, La Jolla, CA, USA). Vmax refers to the maximum transport velocity and Km is defined as the substance concentration required to reach half of vmax. The intrinsic clearance Clint was calculated as the quotient of vmax over Km.
(§6) HEK293 cells stably overexpressing wild-type or mutant OCT2 were incubated with 100 μM racemic substance for two minutes.

SERT = SERT (Homo sapiens, UniProt P31645); test: Stereoselective uptake into SERT-overexpressing HEK293 cells; conditions: SERT; for Saturable net uptake: result in words
OCT2 = biological target: T2, OCT2 (Homo sapiens, UniProt O15244); test: Stereoselective uptake into OCT2 (wild-type)-overexpressing HEK293 cells; conditions: for Clint ± SEM / selectivity ratio at 2 min: OCT2; for Clint ± SEM: quotient of vmax over Km; for selectivity ratio at 2 min: human, ratio between enantiomers; for Vmax ± SEM / Km: HEK293 cells overexpressing human OCT2, racemic substrate, two minutes; for Vmax ± SEM: net uptake; for Km: read-out: Km ± SEM, net uptake minus empty vector control
T2 sequence (O15244 1-555 S270A): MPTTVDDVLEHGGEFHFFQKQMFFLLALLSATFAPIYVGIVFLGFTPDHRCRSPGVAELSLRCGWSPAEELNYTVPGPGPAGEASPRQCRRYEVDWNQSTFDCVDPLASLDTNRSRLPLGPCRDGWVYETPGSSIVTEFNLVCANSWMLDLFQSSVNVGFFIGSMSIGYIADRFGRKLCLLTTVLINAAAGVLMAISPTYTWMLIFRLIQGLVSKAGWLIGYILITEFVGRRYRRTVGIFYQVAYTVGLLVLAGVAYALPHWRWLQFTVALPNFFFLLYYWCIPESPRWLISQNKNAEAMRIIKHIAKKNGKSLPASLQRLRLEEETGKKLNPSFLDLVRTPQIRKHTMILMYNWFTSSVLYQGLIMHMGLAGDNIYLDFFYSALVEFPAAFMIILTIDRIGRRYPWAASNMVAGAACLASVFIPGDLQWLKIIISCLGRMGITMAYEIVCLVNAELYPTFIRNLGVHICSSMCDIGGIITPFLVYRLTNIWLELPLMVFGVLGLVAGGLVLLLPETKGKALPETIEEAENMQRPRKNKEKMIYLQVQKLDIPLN
Description: as §1, §2, §3, §4, §5, §6

NET = NET (Homo sapiens, UniProt P23975); test: Stereoselective uptake into NET-overexpressing HEK293 cells; conditions: for Clint ± SEM / Stereoselectivity Vmax / Stereoselectivity Km / Stereoselectivity ClInt: NET; for Clint ± SEM: quotient of vmax over Km; for Stereoselectivity Vmax / Stereoselectivity Km / Stereoselectivity ClInt: ratio between enantiomers; for Stereoselectivity Km: given as for (R) or for 1 (first-eluting); for Vmax ± SEM / Km: HEK293 cells overexpressing human NET, racemic substrate, two minutes; for Vmax ± SEM: net uptake; for Km: read-out: Km ± SEM, net uptake minus empty vector control
DAT = DAT (Homo sapiens, UniProt Q01959); test: Stereoselective uptake into DAT-overexpressing HEK293 cells; conditions: for Clint ± SEM: quotient of vmax over Km; for Stereoselectivity Vmax / Stereoselectivity Km / Stereoselectivity ClInt: ratio between enantiomers; for Stereoselectivity Vmax: given as for (S) or for 2; for Stereoselectivity Km: given as for (S) or for 2 (second-eluting); for Stereoselectivity ClInt: printed as for (R) or for 1 (also 1.00-fold for (R/S)); for Vmax ± SEM / Km: HEK293 cells overexpressing human DAT, racemic substrate, two minutes; for Vmax ± SEM: net uptake; for Km: read-out: Km ± SEM, net uptake minus empty vector control
OCT1 = biological target: T3, OCT1 (Homo sapiens, UniProt O15245); test: Stereoselective uptake into OCT1-overexpressing HEK293 cells; conditions: for Clint ± SEM / selectivity ratio at 2 min / Stereoselectivity Vmax / Stereoselectivity ClInt / Stereoselectivity Km: OCT1; for Clint ± SEM: quotient of vmax over Km; for selectivity ratio at 2 min: human; for selectivity ratio at 2 min / Stereoselectivity Vmax / Stereoselectivity ClInt / Stereoselectivity Km: ratio between enantiomers; for Vmax ± SEM / Km: HEK293 cells overexpressing human OCT1, racemic substrate, two minutes; for Vmax ± SEM: net uptake; for Stereoselectivity ClInt: given as for (R) or for 1 (also 1.00-fold for 1/2); for Km: read-out: Km ± SEM, net uptake minus empty vector control
T3 sequence (O15245 1-554): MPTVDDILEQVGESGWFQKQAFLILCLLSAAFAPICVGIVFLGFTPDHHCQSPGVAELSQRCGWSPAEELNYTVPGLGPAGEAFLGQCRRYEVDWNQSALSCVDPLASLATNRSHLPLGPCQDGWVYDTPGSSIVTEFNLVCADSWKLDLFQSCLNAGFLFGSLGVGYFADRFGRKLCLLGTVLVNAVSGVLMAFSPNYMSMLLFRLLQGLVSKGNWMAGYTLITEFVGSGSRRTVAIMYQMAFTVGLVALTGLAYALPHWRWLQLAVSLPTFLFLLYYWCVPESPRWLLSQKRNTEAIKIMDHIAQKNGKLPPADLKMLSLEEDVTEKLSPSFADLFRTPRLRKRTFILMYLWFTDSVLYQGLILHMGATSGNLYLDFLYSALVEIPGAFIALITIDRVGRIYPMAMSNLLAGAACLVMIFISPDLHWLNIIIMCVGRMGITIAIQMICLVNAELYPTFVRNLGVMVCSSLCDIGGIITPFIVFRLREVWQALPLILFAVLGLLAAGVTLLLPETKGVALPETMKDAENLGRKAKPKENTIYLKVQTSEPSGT
Description: as §1, §2
Intracellularly accumulated test substances were quantified by HPLC-MS/MS analysis using a Shimadzu Nexera HPLC system with a SIL-30AC autosampler, a CTO-20AC column oven, a LC-30AD pump, and a CBM-20A controller (Shimadzu, Kyoto, Japan). Stereoselective chromatography was carried out on a [sequence] CBH HPLC column (100 × 3 mm inner dimension with 5 μM particle size; Sigma-Aldrich, Darmstadt, Germany) with a corresponding 10 × 3 mm guard column. Reversed phased chromatography was carried out using an ammonium acetate (NH4Ac) buffered aqueous mobile phase with isopropyl alcohol (IPA) as organic solvent. […] The order of elution of the enantiomers was obtained from available reference literature [43] or by applying enantiopure reference compounds to the chiral HPLC. […] Given the structural similarity of the investigated substances and the fact that separation was performed on the same column with almost identical mobile phases, we assume that this order of elution for our compound set is always the (R)- before the (S)-enantiomer.
as §4, §5

[1] = ratio between enantiomers, given as for (S) or for 2
[2] = Stereoselectivity Km, given as for (R) or for 1 (first-eluting)
[3] = given as for (R) or for 1 (also 1.00-fold for 1/2)
[4] = given as for (R) or for 1 (first-eluting)

Chain of NET (P23975 whole entry): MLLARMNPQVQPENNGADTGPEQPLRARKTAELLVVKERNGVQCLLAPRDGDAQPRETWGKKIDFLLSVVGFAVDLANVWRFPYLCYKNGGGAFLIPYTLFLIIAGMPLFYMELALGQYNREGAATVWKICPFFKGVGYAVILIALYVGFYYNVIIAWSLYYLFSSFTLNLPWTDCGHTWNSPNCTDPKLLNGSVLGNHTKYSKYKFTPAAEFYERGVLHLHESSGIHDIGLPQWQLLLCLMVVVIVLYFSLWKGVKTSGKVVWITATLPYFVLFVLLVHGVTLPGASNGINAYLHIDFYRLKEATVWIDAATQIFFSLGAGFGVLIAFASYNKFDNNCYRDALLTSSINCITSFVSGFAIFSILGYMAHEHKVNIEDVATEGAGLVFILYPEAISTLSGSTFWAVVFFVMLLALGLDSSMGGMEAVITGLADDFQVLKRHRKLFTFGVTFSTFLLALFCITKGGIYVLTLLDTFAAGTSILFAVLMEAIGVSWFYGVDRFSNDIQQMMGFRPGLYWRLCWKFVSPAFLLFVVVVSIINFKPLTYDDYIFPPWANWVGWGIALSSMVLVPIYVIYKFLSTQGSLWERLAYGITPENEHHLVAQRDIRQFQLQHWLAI
Chain of DAT (Q01959 whole entry): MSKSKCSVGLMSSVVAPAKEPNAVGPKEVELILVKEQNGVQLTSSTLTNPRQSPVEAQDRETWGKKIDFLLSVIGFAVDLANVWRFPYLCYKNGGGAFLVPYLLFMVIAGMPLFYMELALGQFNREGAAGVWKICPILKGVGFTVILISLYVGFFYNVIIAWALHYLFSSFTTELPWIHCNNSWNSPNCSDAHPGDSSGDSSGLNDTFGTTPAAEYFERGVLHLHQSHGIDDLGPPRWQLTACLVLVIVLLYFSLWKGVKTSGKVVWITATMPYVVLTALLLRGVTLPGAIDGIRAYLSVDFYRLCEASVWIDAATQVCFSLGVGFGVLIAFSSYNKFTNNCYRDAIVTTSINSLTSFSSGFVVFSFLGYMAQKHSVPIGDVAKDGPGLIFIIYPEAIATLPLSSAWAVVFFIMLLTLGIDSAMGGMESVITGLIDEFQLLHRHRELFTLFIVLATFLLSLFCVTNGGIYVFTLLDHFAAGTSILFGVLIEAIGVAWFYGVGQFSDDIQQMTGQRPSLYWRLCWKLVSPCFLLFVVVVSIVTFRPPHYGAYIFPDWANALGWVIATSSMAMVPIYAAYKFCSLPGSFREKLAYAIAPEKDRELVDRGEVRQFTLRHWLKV
Chain of SERT (P31645 whole entry): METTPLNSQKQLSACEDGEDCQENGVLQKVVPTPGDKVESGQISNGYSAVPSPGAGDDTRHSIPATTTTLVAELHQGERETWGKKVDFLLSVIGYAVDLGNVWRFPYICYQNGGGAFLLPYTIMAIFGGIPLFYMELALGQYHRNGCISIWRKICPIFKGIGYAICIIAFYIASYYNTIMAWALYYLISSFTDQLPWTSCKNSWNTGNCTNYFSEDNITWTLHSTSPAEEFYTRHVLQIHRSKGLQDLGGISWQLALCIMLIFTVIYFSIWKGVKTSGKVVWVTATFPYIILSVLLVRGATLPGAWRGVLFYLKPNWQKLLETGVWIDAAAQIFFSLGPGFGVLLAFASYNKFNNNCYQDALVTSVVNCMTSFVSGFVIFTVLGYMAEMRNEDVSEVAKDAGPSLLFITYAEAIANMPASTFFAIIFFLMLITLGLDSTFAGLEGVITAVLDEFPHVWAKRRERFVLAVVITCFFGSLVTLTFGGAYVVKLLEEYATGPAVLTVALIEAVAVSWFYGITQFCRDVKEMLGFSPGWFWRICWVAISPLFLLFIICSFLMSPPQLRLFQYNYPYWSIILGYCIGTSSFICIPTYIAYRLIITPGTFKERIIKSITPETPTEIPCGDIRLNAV

Compound	Clint ± SEM (OCT3)	Stereoselectivity Vmax (OCT3) [fold]	Stereoselectivity Km (OCT3) [fold]	Clint ± SEM (OCT2)	Clint ± SEM (NET)	Stereoselectivity Km (NET) [fold]	Stereoselectivity ClInt (NET; given as for (S) or for 2) [fold]	Clint ± SEM (OCT1)	Vmax ± SEM (OCT3)	Stereoselectivity ClInt (OCT3; [3]) [fold]	Km (OCT3) [µM]	Transporter selectivity (OCT2 A270S variant) [fold]	Vmax ± SEM (OCT2)	Vmax ± SEM (NET)	Km (NET) [µM]	Clint ± SEM (DAT; DAT)	Vmax ± SEM (DAT)	Km (DAT) [µM]	Vmax ± SEM (OCT1)	Km (OCT1) [µM]	further results
COc1cc(C(O)CN)ccc1O (single isomer, unassigned) [Normetanephrine-2, Normetanephrine]	21.6 mL × g Protein^−1 × min^−1	1.09	1.22	5.92 mL × g Protein^−1 × min^−1	3.47 mL × g Protein^−1 × min^−1	1.35	1.28	2.65 mL × g Protein^−1 × min^−1													Stereoselectivity ClInt (OCT3; given as for (S) or for 2): 1.12 fold; Transporter selectivity (OCT2 A270S variant; listed as (S)-Normetanephrine): 1.08 fold; Clint ± SEM (SERT; quotient of vmax over Km): 4.05 mL × g Protein^−1 × min^−1; Stereoselectivity Km (SERT; ratio between enantiomers, given as for (R) or for 1 (first-eluting)): 1.08 fold; Stereoselectivity ClInt (SERT; [1]): 1.28 fold; Stereoselectivity Vmax (SERT; [1]): 1.67 fold; selectivity ratio at 2 min (OCT2; Stereoselectivity ClInt, given as for (R) or for 1): 1.56; selectivity ratio at 2 min (OCT2; [2]): 1.32; selectivity ratio at 2 min (OCT2; Stereoselectivity Vmax, given as for (S) or for 2): 2.06; Stereoselectivity Vmax (NET; given as for (R) or for 1): 1.06 fold; Saturable net uptake (DAT; DAT, result in words): No saturable net uptake; selectivity ratio at 2 min (OCT1; Stereoselectivity ClInt, given as for (S) or for 2): 1.08; selectivity ratio at 2 min (OCT1; [2]): 1.59; selectivity ratio at 2 min (OCT1; Stereoselectivity Vmax, given as for (R) or for 1): 1.47
NC[C@H](O)c1ccccc1 [(R)-Bisnorephedrine]	4.00 mL × g Protein^−1 × min^−1	1.13	1.08	22.6 mL × g Protein^−1 × min^−1	46.1 mL × g Protein^−1 × min^−1	1.01	1.24	1.17 mL × g Protein^−1 × min^−1	662 pmol × mg Protein^−1 × min^−1	1.04	165	1.50	847 pmol × mg Protein^−1 × min^−1	9.50 pmol × mg Protein^−1 × min^−1	0.206	6.21 mL × g Protein^−1 × min^−1	27.2 pmol × mg Protein^−1 × min^−1	4.38	218 pmol × mg Protein^−1 × min^−1	187	Saturable net uptake (SERT): No saturable net uptake; Stereoselectivity Vmax (NET; given as for (S) or for 2): 1.23 fold; Stereoselectivity Vmax (DAT; DAT): 1.17 fold; Stereoselectivity Km (DAT; DAT): 1.18 fold; Stereoselectivity ClInt (DAT; DAT): 1.01 fold; Stereoselectivity Vmax (OCT1; given as for (R) or for 1): 1.19 fold; Stereoselectivity ClInt (OCT1): 1.03 fold; Stereoselectivity Km (OCT1; [4]): 1.15 fold
NC[C@@H](O)c1ccccc1 [(S)-Bisnorephedrine]	3.85 mL × g Protein^−1 × min^−1	1.13	1.08	10.0 mL × g Protein^−1 × min^−1	57.4 mL × g Protein^−1 × min^−1	1.01	1.24	1.13 mL × g Protein^−1 × min^−1	589 pmol × mg Protein^−1 × min^−1	1.04	153	1.24	602 pmol × mg Protein^−1 × min^−1	11.7 pmol × mg Protein^−1 × min^−1	0.204	6.15 mL × g Protein^−1 × min^−1	31.7 pmol × mg Protein^−1 × min^−1	5.16	184 pmol × mg Protein^−1 × min^−1	162	Saturable net uptake (SERT): No saturable net uptake; Stereoselectivity Vmax (NET; given as for (S) or for 2): 1.23 fold; Stereoselectivity Vmax (DAT; DAT): 1.17 fold; Stereoselectivity Km (DAT; DAT): 1.18 fold; Stereoselectivity ClInt (DAT; DAT): 1.01 fold; Stereoselectivity Vmax (OCT1; given as for (R) or for 1): 1.19 fold; Stereoselectivity ClInt (OCT1): 1.03 fold; Stereoselectivity Km (OCT1; [4]): 1.15 fold
CNC[C@@H](O)c1ccc(O)c(O)c1 [(S)-Epinephrine]	11.7 ± 4.9 mL × g Protein^−1 × min^−1			6.83 ± 2.57 mL × g Protein^−1 × min^−1					5336 ± 502 pmol × mg Protein^−1 × min^−1		455 ± 149		3993 ± 360 pmol × mg Protein^−1 × min^−1	557 ± 22 pmol × mg Protein^−1 × min^−1	8.52 ± 1.91	37.9 ± 14.8 mL × g Protein^−1 × min^−1	1226 ± 90 pmol × mg Protein^−1 × min^−1		2514 ± 266 pmol × mg Protein^−1 × min^−1	671 ± 230	Km (OCT2): 585 ± 167 µM
(R)-Epinephrine	20.9 ± 6.7 mL × g Protein^−1 × min^−1			14.2 ± 4.0 mL × g Protein^−1 × min^−1	91.7 ± 21.3 mL × g Protein^−1 × min^−1			4.06 ± 1.37 mL × g Protein^−1 × min^−1	9742 ± 698 pmol × mg Protein^−1 × min^−1		466 ± 116		7277 ± 483 pmol × mg Protein^−1 × min^−1	1027 ± 37 pmol × mg Protein^−1 × min^−1	11.2 ± 2.2	64.7 ± 26.7 mL × g Protein^−1 × min^−1		34 ± 11.6	2419 ± 189 pmol × mg Protein^−1 × min^−1	596 ± 155	Km (OCT2): 513 ± 110 µM
